# According to the NIST ThermoML archive (doi:10.1016/j.jct.2014.07.013):
# ± gives the expanded uncertainty stated by the source.
# Settings: Liquid, Closed cell (Static) method
SMILES,vapor or sublimation pressure (258.15 K) [kPa],vapor or sublimation pressure (263.15 K) [kPa],vapor or sublimation pressure (273.15 K) [kPa],vapor or sublimation pressure (283.15 K) [kPa]
CCC [propane],291.6 ± 1.1,345.3 ± 1.1,474.5 ± 1.2,636.8 ± 1.4
FC(F)(F)I [trifluoroiodomethane],133 ± 1,160.4 ± 1,228.4 ± 1.1,316.5 ± 1.1
